Measurements: patent publication US12594293B2, “Use of 6-thio-dG to treat therapy-resistant telomerasepositive pediatric brain tumors” (The Board of Regents of The University of Texas System, priority 2018, dated 2026)
“Also recorded” adds a separate entry of the source.

Assays:
D-425 = assay: Cell growth assay (viable cell count, trypan blue exclusion); type: cell-based, human
Procedure: (§1) Cell growth and sphere formation assay. After dissociating primary neurospheres by TrypLE express (Gibco), single cells were seeded in respective growth media in 6-well plates and were incubated for one week at varying concentrations (0.5 to 10 μM) of 6-thio-dG or DMSO. Fresh culture media were added every three days. Viable cell numbers were determined by trypan blue exclusion method. For sphere formation assay, MB004 single cells were seeded in limited dilution (10 cells/well in 96-well plate) and treated with DMSO or 6-thio-dG. Sphere formation was monitored by microscopy.

D-458 = assay: as above; type: cell-based, human
Procedure: as §1

HFF = assay: as above; type: cell-based, human
Procedure: as §1

MB004 = assay: as above; type: cell-based, human
Procedure: as §1

SaOS2 = assay: as above; type: cell-based, human
Procedure: as §1

HFF cells [1] = assay: Senescence-associated β-galactosidase assay; type: cell-based, human; conditions: 3 μM for 23 days
Excerpt: (§2) Senescence assay. Senescence-associated β-galactosidase was detected as previously described (2). Cells were observed under the microscope until the development of the blue color and the reaction was terminated. Images were captured; stained and unstained cells were counted from multiple fields to quantitate the percent senescent cells.

HFF+hTERT cells = assay: Senescence-associated β-galactosidase assay; type: cell-based, human; conditions: 3 μM for 23 days
Excerpt: as §2

HFF cells [2] = assay: Apoptosis, cleaved caspase-3 (IF / immunoblot); type: cell-based, human; conditions: 3 μM for 4 or 7 days
Procedure: (§3) Immunofluorescence and telomere FISH assay. Cells were fixed with 4% paraformaldehyde (PFA) for 15 minutes. Cells were then washed, permeabilized with 0.5% Triton-X-100 in PBS, blocked with 5% donkey serum and 0.3% Triton X-100 in TBS and incubated with primary antibodies against γH2A.X (1:500, rabbit), or cleaved caspase-3 (1:400, rabbit) (Cell Signaling); and/or TRF2 (1:200) (Mouse; NOVUS), as applicable, for overnight followed by TBST wash (×3) next day. Corresponding secondary antibodies were added (Alexa-Fluor 488- or 594-conjugated donkey anti-rabbit, or anti-mouse (1:500) (Jackson ImmunoResearch) for 1 hour and washed with TBS (×3) before mounting. For telomere-FISH, fixed and permeabilized cells were dehydrated with a graded ethanol concentration series, air-dried and covered with hybridization solution (70% formamide, 0.5% Blocking Reagent (Roche Diagnostics) diluted in 100 mM maleic acid and 150 mM sodium chloride, and 10 mM Tris (pH 7.5)) with 300 ng/mL PNA(CCCTAA)3-Cy3 (SEQ ID NO: 1) (Biosynthesis, USA), and denatured for 6 minutes at 84° C. followed by hybridization for at least two hours at room temperature. Cells were washed three times with 70% formamide and 10 mM Tris (pH 7.5) and three times with TBS. Finally, they were embedded with mounting media with DAPI (Vector Laboratories H1200).
(§4) Western blot. Western blot was performed as described previously (22). Antibodies used were against ATMS1981P (R & D Systems); ATM (SIGMA); ATR-T1989P (GeneTex); and ATR, CHK1-S345P, CHK1, CHK2-T68P, CHK2, Cleaved Caspase-3, and β-actin (Cell Signaling). Bands were visualized using ECL with Azurec500 imaging system (Azure Biosystems). Band intensities were quantified using ImageJ software (Ver. 1.49u, NIH, USA).

HeLa cells = assay: Apoptosis, cleaved caspase-3 (IF / immunoblot); type: cell-based, human; conditions: 3 μM for 4 or 7 days
Procedure: as §3, §4

[3] = tested on: CCHMC-DIPG-1 orthotopic tumors; assay: Orthotopic patient-derived DIPG xenograft (CCHMC-DIPG-1 in pons); type: in vivo, mouse
Procedure: Mouse subcutaneous and orthotopic xenograft. Athymic Ncr-nu/nu female mice (6-7 weeks old) were subcutaneously injected with 10,000 MB004 cells. Mice were weighed and distributed in two groups (control and 6-thio-dG). After tumor-establishment (day 23-24 post-implantation) with an average volume of 100-200 mm3, mice were injected intraperitoneally (i.p) every 2 days with 6-thio-dG (2.5 mg/kg) or DMSO-PBS (vehicle) for 3-4 weeks until euthanization. Tumors were measured by slide calipers taking two longest tumor-diameters (length and width) perpendicular to each other and volumes were calculated by using the formula: (π/6)×d3, where d=mean diameter. For orthotopic xenograft, CCHMC-DIPG-1 luciferase-positive cells (10,000) were injected in the brain of NRG (NOD.Cg-Rag1tm1Mom Il2rgtm1Wjl/SzJ) mice. Briefly, mice were injected stereotactically with 2 μl medium containing 10,000 luciferase-positive cells. The coordinates for injection were 0.8-1 mm posterior to lambda suture and 3.5 mm deep, corresponding to the pons location in the brain. Tumors were visualized by luminescence using IVIS Spectrum CT in vivo imaging system (PerkinElmer). All animal procedures were approved by the Institutional Animal Care and Use Committee (IACUC) (protocol #IACUC2015-0066, CCHMC).
Immunohistochemistry. Formalin-fixed paraffin-embedded (FFPE) sections were deparaffinized in xylene followed by rehydration through a graded ethanol concentration series. Heat-induced antigen retrieval was performed by steaming slides for 20 minutes in 10 mM Citrate buffer (pH 6.0). […] Slides were washed with TBST (×3) and were treated with biotinylated anti-rabbit secondary antibody (1:500) and signal-amplified using ABC Kit (Vector Laboratories). Signal was visualized with DAB (Vector Laboratories) and counterstained with Harris Hematoxylin (Sigma). H & E staining was performed using hematoxylin-1 and eosin-Y (Thermo Scientific). Tissues were mounted with Permount (Fisher Scientific) and imaged by Nikon eclipse 80i microscope.
Tissue TIF assay. […]

Nc1nc2c(ncn2[C@H]2C[C@H](O)[C@@H](CO)O2)c(=S)[nH]1 [6-thio-dG, 6-thio-2′-deoxyguanosine]
cell growth (D-425; 0.5-10 μM for one week, cells at diagnosis): effectively inhibited cell growth
IC50 (D-425; Homo sapiens, 168 h, 6-thio-dG treatment for 7 days, D-425 (primary)): 1380 nM
cell growth (D-458; 0.5-10 μM for one week, cells at recurrence): effectively inhibited cell growth
IC50 (D-458; Homo sapiens, 168 h, 6-thio-dG treatment for 7 days, D-458 (recurrence)): 1450 nM
IC50 (HFF; Homo sapiens, 168 h, 6-thio-dG treatment for 7 days, HFF (telomerase-negative)): 7900 nM
cell growth (HFF; up to 3 μM, one week): minor to no effect
relative growth (MB004; 3 μM 2 days, then 3 days continuous or discontinuous treatment): robust growth inhibition
IC50 (MB004; Homo sapiens, 168 h, 6-thio-dG treatment for 7 days, MB004): 436 nM
IC50 (SaOS2; Homo sapiens, SAOS-2, 168 h, 6-thio-dG treatment for 7 days, SaOS2 (telomerase-negative, ALT-positive)): 7580 nM
cell growth (SaOS2; up to 3 μM, one week): minor to no effect
cells SA-β-gal-positive (HFF cells [1]): 7%
cells with senescence phenotype (SA-β-gal-positive) (HFF+hTERT cells): 30%
apoptosis (cleaved caspase-3) (HFF cells [2]): did not show any evidence of apoptosis
cleaved caspase-3 signal (apoptosis) (HeLa cells): increase in cleaved caspase-3 signal
intratumoral TIFs and genomic DNA damage ([3]; i.p., 7-8 days (4-5 doses in total), vs untreated tumors): increase in the number of cells with genomic DNA damage and TIFs
effect on normal mouse brain ([3]; intraperitoneal injection): no obvious effect on normal brain tissue; also recorded: did not observe any adverse effects
penetration to brain tumor site ([3]; intraperitoneal injection): reached the tumor in the pons; also recorded: crossed the blood-brain-barrier
